Columns and labels:
[1] = target: T1, hFFA2 (Homo sapiens, UniProt O15552); experiment: Fluo-4 Direct Ca^2+ flux assay in CHO cells stably expressing hFFA2; format: cell-based; details: for Ca^2+ response (in words): ligand alone
T1 construct: host or cells: CHO-K1
T1 sequence (O15552 1-330): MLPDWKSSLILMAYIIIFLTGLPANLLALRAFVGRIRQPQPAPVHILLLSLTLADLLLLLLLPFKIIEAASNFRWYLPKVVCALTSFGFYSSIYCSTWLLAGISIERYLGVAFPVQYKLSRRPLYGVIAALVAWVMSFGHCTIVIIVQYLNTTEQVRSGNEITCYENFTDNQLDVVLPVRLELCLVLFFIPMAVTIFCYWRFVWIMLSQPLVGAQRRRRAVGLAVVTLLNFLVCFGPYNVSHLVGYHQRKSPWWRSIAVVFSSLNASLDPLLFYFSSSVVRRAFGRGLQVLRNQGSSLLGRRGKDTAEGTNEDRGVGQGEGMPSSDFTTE
Protocol: (§1) CHO-K1, stably expressing human FFA2 (CHO-FFA2) was purchased from DiscoverX Corporation. CHO-FFA2 cells were cultured in a buffer of Ham’s F12, 10% FBS, 1% penicillin streptomycin and 800 μg/mL of G418 (Geneticin) (Invitrogen Life Technologies). Cells were passaged when 70–80% confluent using 0.05% trypsin with 1 mM EDTA in phosphate-buffered saline (PBS), pH 7.4. All cells in culture, once seeded, were incubated at 37 °C with 5% CO2.
(§2) Fluo-4 Direct assay was preformed according to manufacturer’s instructions with additional wash steps and read on a Fluorescent Imaging Plate Reader (FLIPR) (Molecular Devices, California). Briefly, 10,000 cells were seeded/well in 10 μL of media in a 384 well block with a clear bottom plate and incubated overnight at 37 °C. An equivalent volume of 2x Flou-4 Direct calcium reagent was added to each well and incubated for 30 min at 37 °C and a further 30 min at room temperature. Ligand addition was carried out on the FLIPR instrument whilst fluorescence was measured at excitation 494 nm and emission at 516 nm for five minutes to enable capture of the fast calcium response.

[2] = target: T1, hFFA2; experiment: AlphaScreen SureFire pERK1/2 (Thr202/Tyr204) assay in CHO cells stably expressing hFFA2; format: cell-based; details: for Emax: CHO; for pERK1/2 response (in words): ligand alone
Protocol: as §1
(§3) To measure pERK1/2 we utilised the high throughput AlphaScreen SureFire pERK1/2 (Thr202/Tyr204) Assay Kit (PerkinElmer)[42]. Detection of pERK1/2 is enabled by immuno-sandwich capture of endogenous pERK1/2 in cell lysates. Antibody-coated AlphaScreen beads generate a highly amplified signal when near due to binding of pERK1/2. Cells were seeded at 50,000 cells/well in a 96 well tissue culture plate and incubated for 24 hours at 37 °C. Cells were then incubated in serum free media overnight. Test compounds were added to the cells and incubated for 10 min at room temperature before cells were lysed and assayed for pERK1/2 using the AlphaScreen-based detection kit according to the manufacturer’s protocol (PerkinElmer).

[3] = test system: intestinal ischemia reperfusion injury (IRI); experiment: Mouse model of intestinal ischemia reperfusion injury (superior mesenteric artery occlusion); format: in vivo; details: for Circulating neutrophil numbers: IRI groups, WT mice; for Circulating neutrophil numbers / Neutrophil infiltration into the ileum (esterase-stained neutrophils, myeloperoxidase) / Mucosal (villi) damage, histopathological score of H&E-stained ileum: oral gavage; for Neutrophil infiltration into the ileum (esterase-stained neutrophils, myeloperoxidase) / Mucosal (villi) damage, histopathological score of H&E-stained ileum: WT IRI groups; for Circulating neutrophil counts: sham-operated mice, oral gavage 48 h, 24 h and 1 h prior to surgery, mean ± SEM
Text: Specific pathogen-free (SPF) conventional C57BL/6J (WT) mice were obtained from the […] (ARC) and maintained at The University of Queensland Biological Resources Animal Facilities under specific pathogen-free conditions.
FFA2^−/− knockout mice were obtained from Monash University and bred at The University of Queensland Biological Resources Animal Facilities under SPF conditions. Male mice 10–12 weeks weighing 20–30 g were used for all experiments. All experiments were performed in accordance with the guidelines and approval of The University of Queensland Animal Ethics Committee.
After 35 minutes the ligature was removed to allow for a reperfusion period of 150 minutes. […] Mice were orally gavaged with ligand 48 hours, 24 hours and 1 hour prior to surgery. Mice were euthanised and small intestinal tissue or whole blood [collected in 1 mg/mL EDTA and 0.1 mg/mL nafamostat mesylate (FUT-175)] was collected for further analysis.

[4] = target: T1, hFFA2; experiment: LANCE Ultra cAMP assay, inhibition of forskolin-induced cAMP, in CHO cells stably expressing hFFA2; format: cell-based; details: for Emax: CHO; for EC50: read-out: cAMP pEC50 (converted)
Protocol: as §1
The LANCE Ultra cAMP homogeneous time resolved resonance energy transfer (TR-FRET) immunoassay (PerkinElmer) provides a highly sensitive and robust method for the detection of cAMP. Briefly, cells were re-suspended in stimulation buffer (1 x HBSS, 5 mM HEPES, 0.5 mM IBMX, 0.1% BSA (pH7.4)) and transferred to 384-proxiplate (PerkinElmer) at a density of 2000 cells/well. Cells were stimulated with agonist and forskolin (5 μM), where appropriate, and incubated for 30 min. EucAMP tracer and ULight-anti-cAMP solutions were added to the cells and incubated for 1 hour at room temperature. Time- resolved FRET signals were measured after excitation at 320 nm on the EnVision. All data were normalized to the functional response obtained with 1.67 mM sodium acetate.

[5] = test system: parental CHO-K1 cells; experiment: Ca^2+, pERK1/2 and cAMP assays on the parental CHO-K1 cell line (specificity control); format: cell-based, Chinese Hamster; details: highest concentration of ligand
Protocol: These cells were cultured in Ham’s F12, 10% FBS and 1% penicillin streptomycin. Cells were passaged when 70–80% confluent using 0.05% trypsin: EDTA in phosphate-buffered saline (PBS), pH 7.4. All cells in culture, once seeded, were incubated at 37 °C with 5% CO2.
as §2, §3
The LANCE Ultra cAMP homogeneous time resolved resonance energy transfer (TR-FRET) immunoassay (PerkinElmer) provides a highly sensitive and robust method for the detection of cAMP. […] Time- resolved FRET signals were measured after excitation at 320 nm on the EnVision. […]

[6] = test system: FFA2; design: method as in earlier work; details: cited from earlier work
[7] = 4CMTB at 20 µM on an acetate dose response curve
[8] = 4CMTB below 1 µM on an acetate dose response curve
[9] = + PTX, read-out: pERK1/2 pEC50 (converted)
[10] = + PTX, percentage of the maximal response from acetate
[11] = ligand alone (agonist mode), CHO-hFFA2, expressed as a percentage of the maximal response from acetate
[12] = ligand alone (agonist mode), CHO-hFFA2, read-out: pERK1/2 pEC50 (converted)
[13] = inhibition of forskolin-induced cAMP, ligand alone, expressed as a percentage of the maximal response from acetate
[14] = inhibition of forskolin-induced cAMP, ligand alone (agonist mode), CHO-hFFA2
[15] = 2CTAP + Acetate (2CTAP dose response in the presence of 2 mM acetate, Fig. 6A), read-out: Ca^2+ pEC50 (converted)
[16] = antagonist mode, concentration-dependent decrease in Ca^2+, read-out: Ca^2+ pEC50 (Antagonist) (converted)
[17] = antagonist mode, inhibition of ERK activation by 2 mM acetate, read-out: pERK1/2 pEC50 (Antagonist) (converted)
[18] = ligand alone (agonist mode), CHO-hFFA2

SMILES | Ca^2+ response (in words) ([1]; CHO-hFFA2) | EC50 [2, 9] [nM] | Emax [2, 10] [%] | Emax [2, 11] [%] | EC50 [2, 12] [nM] | Circulating neutrophil numbers [3] | Neutrophil infiltration into the ileum (esterase-stained neutrophils, myeloperoxidase) [3] | Emax [4, 13] [%] | EC50 [4, 14] [nM] | EC50 [1, 15] [nM] | EC50 [1, 16] [nM] | EC50 [2, 17] [nM] | pERK1/2 response (in words) ([2]; CHO-hFFA2) | forskolin-induced cAMP response (in words) ([4]; ligand alone, CHO-hFFA2) | Response in parental CHO-K1 cells [5] | further results
CC(C)[C@@H](C(=O)Nc1nccs1)c1ccc(Cl)cc1 [R-4CMTB, 2-(4-chlorophenyl)-3-methyl-N-(thiazole-2-yl)butanamide] | no effect | 20000 | 16 | 60 | 10000 | comparable to vehicle control IRI-groups | did not reduce neutrophil infiltration below the IRI group | 74 | 6310 | – | – | – | – | – | – | Allosteric modulation of acetate Ca^2+ response [1, 7]: mild effect on the potency of acetate but did not increase the efficacy; Allosteric modulation of acetate Ca^2+ response [1, 8]: negative allosteric modulators; Circulating neutrophil counts [3]: 0.81 × 10^6 ± 0.11
O=C(O)C[C@@H](C(=O)Nc1nc(-c2ccccc2Cl)cs1)c1ccccc1 [R-2CTAP, 4-((4-(2-chlorophenyl)thiazole-2-yl)amino)-4oxo-3-phenylbutanoic acid] | decreased Ca^2+ | – | – | – | – | – | – | – | – | 251 | 251 | 2510 | no effects | no effects | – | –
CC(C)C(C(=O)Nc1nccs1)c1ccc(Cl)cc1 (racemic) [R/S-4CMTB, 2-(4-chlorophenyl)-3-methyl-N-(thiazole-2-yl)butanamide] | did not induce a Ca^2+ response | 20000 | 20 | 85 | 1580 | – | – | 83 | 100 | – | – | – | – | – | No response | –
O=C(O)C[C@H](C(=O)Nc1nc(-c2ccccc2Cl)cs1)c1ccccc1 [S-2CTAP, 4-((4-(2-chlorophenyl)thiazole-2-yl)amino)-4oxo-3-phenylbutanoic acid] | decreased Ca^2+ | – | – | – | – | – | – | – | – | 1580 | 2000 | 39800 | no effects | no effects | – | –
O=C(O)CC(C(=O)Nc1nc(-c2ccccc2Cl)cs1)c1ccccc1 (racemic) [R/S-2CTAP, 4-((4-(2-chlorophenyl)thiazole-2-yl)amino)-4oxo-3-phenylbutanoic acid] | concentration-dependent decrease in Ca^2+ | – | – | – | – | comparable to vehicle control IRI-groups | did not reduce neutrophil infiltration below the IRI group | – | – | 631 | 1000 | 15800 | no effect | no effect | No response | Concentration of maximal response in the GTPγS assay [6]: 60 nM; Protective effects in IRI in the absence of FFA2 ([3]; FFA2^−/− mice, IRI): abolished; Mucosal (villi) damage, histopathological score of H&E-stained ileum [3]: mucosal damage was significantly reduced
CC(=O)O [Acetate] | – | – | – | – | – | – | – | – | – | – | – | – | – | – | No response | Ca^2+ pEC50 [1, 18]: 3.8; Ca^2+ Emax [1, 11]: 100; pERK1/2 pEC50 [2, 18]: 3.6; pERK1/2 Emax [2, 11]: 100; cAMP pEC50 [4, 14]: 3.9; cAMP Emax [4, 13]: 100
CC(C)[C@H](C(=O)Nc1nccs1)c1ccc(Cl)cc1 [S-4CMTB, 2-(4-chlorophenyl)-3-methyl-N-(thiazole-2-yl)butanamide] | – | 15800 | 22 | 102 | 794 | comparable to vehicle control IRI-groups | increased neutrophil infiltration into the villi | 99 | 158 | – | – | – | – | – | – | Allosteric modulation of acetate Ca^2+ response [1, 7]: increased both the potency and efficacy of acetate; Allosteric modulation of acetate Ca^2+ response [1, 8]: negative allosteric modulators; Emax [1, 11]: 55%; EC50 ([1]; ligand alone (agonist mode), CHO-hFFA2, read-out: Ca^2+ pEC50 (converted)): 2000 nM; Mucosal (villi) damage, histopathological score of H&E-stained ileum [3]: did not reduce villi damage; Circulating neutrophil counts [3]: 0.92 × 10^6 ± 0.07

— PMC6292860, “Characterisation of small molecule ligands 4CMTB and 2CTAP as modulators of human FFA2 receptor signalling” (Scientific Reports, 2018)
